Results taken from US20260217727A1, “COMPOUNDS DERIVED FROM DIHYDROPIRIDINES, PHARMACEUTICAL COMPOSITIONS COMPRISING SAID COMPOUNDS AND METHOD OF TREATMENT OF MUSCLE DISORDERS COMPRISING ADMINISTRATION OF SAID COMPOSITIONS” (UNIVERSIDAD DE CHILE, priority 2023, published 2026).
“Also recorded” adds a separate entry of the source.

Legend:
fdb muscle fibers [1] = conditions: earlier results of the inventors; cited from earlier work
[2] = molecular target: T1, Cav1.1 channels (dihydropyridine receptors) (Mus musculus, UniProt Q02789); conditions: earlier results, stated in words; cited from earlier work
T1 construct: endogenous in cells; host or cells: single skeletal muscle fibers isolated from C57 mouse flexor digitorum brevis (FDB) muscle

[3] = system: muscle fibers of normal mice; assay: qPCR of proinflammatory genes in muscle fibers exposed to extracellular ATP; type: cell-based, mouse; conditions: 300 μM extracellular ATP for 2 h
Experimental: Total RNA from the isolated muscle fiber culture was extracted using TRIzol (Invitrogen) according to the manufacturer's protocol. The cDNA was obtained by reverse transcription from 1 μg of total RNA, using the enzyme SuperScript II (Invitrogen) according to the manufacturer's protocol. Real-time qPCR assays were performed using a thermocycler (Stratagene Mx300P, Agilent) according to the following protocol. The reaction mix will be given by 1 μL 10×dNTPs, 0.5 μL sense primer (10 pmol/μL), 0.5 μL antisense primer (10 pmol/μL), 4 μL EVA Green (Invitrogen) and 1 μL cDNA. The final volume of the mix was brought to 20 μL by adding nuclease-free water. All primers have an optimal amplification efficiency (between 90-110%). In any case, the analysis of the data was carried out considering a correction of the amplification cycle of each gene according to the amplification efficiency of the primers. The thermocycling conditions were the following: 1 cycle of 12 min at 95° C., followed by 40 cycles of 15 at 95° C. […] The Ct value was determined by the MXPro software when the fluorescence level is 25% higher than the basal fluorescence. […]
Increases in proinflammatory markers have been reported in the muscles of older adults, as part of the process of losing muscle mass. Therefore, the effect of chronic exposure to high levels of extracellular ATP on mRNA levels of proinflammatory genes was evaluated. […]

aged mice [4] = assay: Incremental treadmill running test (endurance) in aged mice; type: in vivo, mouse
Experimental: The standardization of this test that evaluates resistance and strength was carried out in the treadmill equipment for rodents. The test consists of 5 sessions where the animals were acclimatized for 5 minutes at the equipment's minimum speed of 0.3 Km/h and the number of shots of compressed air that keep the animal trotting is counted. Once the acclimatization process was finished, the animals were evaluated in an incremental test consisting of 2-minute ramps at the minimum speed and then gradually increasing 0.1 Km/h after 2 minutes until the animal could no longer run. This maximum effort test is only performed once per session and is considered finished when the animal reaches the bottom of the ramp and accumulates 10 shots of compressed air in a period of 10 seconds.
The muscle function of aged mice (between 19 and 21 months of age) was assessed with an incremental strength test (weightlifting) and with an incremental treadmill running test. The measurement was made after 12 days of treatment with MP-2 (1 mg/Kg/day) administered via intraperitoneal injection. As a control, vehicle-injected mice were used in the same manner as drug-injected mice. Recovery of muscle function can be observed after treatment. Data were analyzed as the change in test performance at the end of treatment relative to performance at the start of treatment for each mouse. […]

[5] = molecular target: T1, Cav1.1 channels (dihydropyridine receptors); assay: Whole cell voltage-clamp measurement of L-type Ca2+ currents in isolated fdb muscle fibers; type: cell-based; conditions: L-type calcium peak current, mouse skeletal muscle fibers, control = maximum current without drug, read-out: % inhibition of Ca^2+ current
fdb muscle fibers [6] = assay: ATP release from fdb muscle fibers after 20 Hz electrical stimulation (luciferin/luciferase); type: cell-based, mouse; conditions: pre-incubation 10 μM for 30 min
Experimental: Isolation of skeletal muscle fibers was performed from C57BL/J6 mice between 8 and 10 weeks of age. Isolated fibers were obtained from the flexor digitorum brevis (FoB) and Gastrocnemius muscle by enzymatic digestion for 90 min with 400 U/mL type II collagenase (Worthington Biochemicals Corp., Lakewood, NJ, USA) and mechanical dissociation with Pasteur pipettes, as previously described (Casas et.al, 2010). The isolated fibers were seeded in Petri dishes coated with a layer of Matrigel in Dulbecco's modified Eagle's culture medium (DMEM), supplemented with 10% horse serum, 50 U/mL penicillin and […] streptomycin. Cell cultures were used approximately 20 h after the fiber seeding process. All protocols were previously approved by the Bioethics Committee of the Faculty of Medicine of the University of Chile. […]
Extracellular ATP concentrations were determined using the CellTiter-Glo® Luminescent Cell Viability Assay Kit (Promega). […] After incubating for 10 min in the dark at room temperature, the samples were quantified in an FB12 (Berthold) luminometer. […] RNA normalization was preferred over total protein normalization since adult fiber cultures were seeded on a matrigel sheet, which has a large amount of protein and could alter the quantification process. […]

aged mice [7] = assay: Incremental strength test (weightlifting) in aged mice; type: in vivo, mouse
Experimental: The muscle function of aged mice (between 19 and 21 months of age) was assessed with an incremental strength test (weightlifting) and with an incremental treadmill running test. The measurement was made after 12 days of treatment with MP-2 (1 mg/Kg/day) administered via intraperitoneal injection. As a control, vehicle-injected mice were used in the same manner as drug-injected mice. Recovery of muscle function can be observed after treatment. Data were analyzed as the change in test performance at the end of treatment relative to performance at the start of treatment for each mouse. It is observed that the treatment improves the strength parameters more than 4 times with respect to the control. […] The mean±SEM is plotted. N=5 for each group, *: p<0.05
Two functional tests were performed in control (saline-injected) and MP-2-treated (daily intraperitoneal injections of 1 mg/Kg MP-2 for 12 days) mice.

[8] = aged mice 19-21 months, 1 mg/Kg/day i.p. for 12 days, change end vs start of treatment

T1 sequence (Q02789 whole entry): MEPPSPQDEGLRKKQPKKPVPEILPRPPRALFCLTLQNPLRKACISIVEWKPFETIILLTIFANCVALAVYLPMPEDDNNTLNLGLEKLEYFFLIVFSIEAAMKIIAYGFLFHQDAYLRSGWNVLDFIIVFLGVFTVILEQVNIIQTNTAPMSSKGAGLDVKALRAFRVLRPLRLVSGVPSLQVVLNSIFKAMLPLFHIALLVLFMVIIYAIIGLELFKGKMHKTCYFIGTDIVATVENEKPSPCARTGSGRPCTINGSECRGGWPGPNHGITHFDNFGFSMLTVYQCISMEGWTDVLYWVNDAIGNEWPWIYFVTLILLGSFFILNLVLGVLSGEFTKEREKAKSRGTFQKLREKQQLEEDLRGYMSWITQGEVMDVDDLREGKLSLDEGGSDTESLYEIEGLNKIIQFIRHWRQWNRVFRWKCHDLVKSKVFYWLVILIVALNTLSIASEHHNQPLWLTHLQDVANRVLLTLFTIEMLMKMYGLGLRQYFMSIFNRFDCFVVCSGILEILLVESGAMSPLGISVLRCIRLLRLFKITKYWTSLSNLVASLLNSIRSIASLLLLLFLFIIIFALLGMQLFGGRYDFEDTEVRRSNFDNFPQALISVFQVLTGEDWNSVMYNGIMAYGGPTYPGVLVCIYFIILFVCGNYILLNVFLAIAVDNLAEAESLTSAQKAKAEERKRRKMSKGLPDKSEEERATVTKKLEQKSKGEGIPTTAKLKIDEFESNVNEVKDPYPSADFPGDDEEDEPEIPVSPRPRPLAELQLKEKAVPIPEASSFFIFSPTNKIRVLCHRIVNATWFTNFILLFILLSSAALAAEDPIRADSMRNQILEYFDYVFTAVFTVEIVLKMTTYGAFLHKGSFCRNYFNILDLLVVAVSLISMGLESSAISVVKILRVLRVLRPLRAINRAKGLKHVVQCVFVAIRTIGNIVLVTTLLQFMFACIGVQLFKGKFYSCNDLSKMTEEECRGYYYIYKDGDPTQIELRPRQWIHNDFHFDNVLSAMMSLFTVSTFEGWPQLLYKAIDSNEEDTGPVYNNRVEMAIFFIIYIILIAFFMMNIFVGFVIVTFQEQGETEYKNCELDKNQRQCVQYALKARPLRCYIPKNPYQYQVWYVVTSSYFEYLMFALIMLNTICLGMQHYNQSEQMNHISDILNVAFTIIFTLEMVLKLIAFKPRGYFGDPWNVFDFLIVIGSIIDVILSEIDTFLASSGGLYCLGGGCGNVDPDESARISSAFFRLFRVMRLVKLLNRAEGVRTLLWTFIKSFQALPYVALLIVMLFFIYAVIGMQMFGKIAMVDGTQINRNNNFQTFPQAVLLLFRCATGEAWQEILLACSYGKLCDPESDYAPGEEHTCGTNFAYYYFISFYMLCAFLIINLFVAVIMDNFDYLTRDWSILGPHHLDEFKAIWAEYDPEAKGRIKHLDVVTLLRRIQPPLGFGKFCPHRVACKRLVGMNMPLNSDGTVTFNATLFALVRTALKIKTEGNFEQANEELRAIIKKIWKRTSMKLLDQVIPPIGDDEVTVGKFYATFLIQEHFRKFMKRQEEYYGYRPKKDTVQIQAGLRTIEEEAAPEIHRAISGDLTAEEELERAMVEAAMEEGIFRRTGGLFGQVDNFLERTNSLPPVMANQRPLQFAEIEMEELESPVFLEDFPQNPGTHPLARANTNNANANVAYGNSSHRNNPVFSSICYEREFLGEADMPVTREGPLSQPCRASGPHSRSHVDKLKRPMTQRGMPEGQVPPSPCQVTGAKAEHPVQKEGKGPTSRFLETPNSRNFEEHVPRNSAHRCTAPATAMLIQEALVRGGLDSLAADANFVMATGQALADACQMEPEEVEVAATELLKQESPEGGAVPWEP
T1 sequence (Q8R3Z5 whole entry partner): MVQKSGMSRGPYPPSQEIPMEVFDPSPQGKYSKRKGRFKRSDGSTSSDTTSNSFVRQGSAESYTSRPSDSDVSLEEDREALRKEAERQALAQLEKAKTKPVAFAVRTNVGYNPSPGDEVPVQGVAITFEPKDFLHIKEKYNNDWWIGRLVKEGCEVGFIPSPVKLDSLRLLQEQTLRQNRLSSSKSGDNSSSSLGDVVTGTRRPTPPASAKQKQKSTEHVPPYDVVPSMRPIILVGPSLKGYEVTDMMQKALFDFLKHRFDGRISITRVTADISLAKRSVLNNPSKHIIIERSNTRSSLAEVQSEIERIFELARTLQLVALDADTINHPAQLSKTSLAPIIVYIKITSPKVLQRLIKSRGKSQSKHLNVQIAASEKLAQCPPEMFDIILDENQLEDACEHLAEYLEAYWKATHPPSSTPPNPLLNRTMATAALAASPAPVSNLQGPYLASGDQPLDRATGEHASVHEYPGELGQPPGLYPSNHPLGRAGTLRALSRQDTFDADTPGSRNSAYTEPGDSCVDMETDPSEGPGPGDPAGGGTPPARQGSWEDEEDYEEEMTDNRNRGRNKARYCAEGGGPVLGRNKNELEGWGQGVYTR
T1 sequence (O08532 25-1103 partner): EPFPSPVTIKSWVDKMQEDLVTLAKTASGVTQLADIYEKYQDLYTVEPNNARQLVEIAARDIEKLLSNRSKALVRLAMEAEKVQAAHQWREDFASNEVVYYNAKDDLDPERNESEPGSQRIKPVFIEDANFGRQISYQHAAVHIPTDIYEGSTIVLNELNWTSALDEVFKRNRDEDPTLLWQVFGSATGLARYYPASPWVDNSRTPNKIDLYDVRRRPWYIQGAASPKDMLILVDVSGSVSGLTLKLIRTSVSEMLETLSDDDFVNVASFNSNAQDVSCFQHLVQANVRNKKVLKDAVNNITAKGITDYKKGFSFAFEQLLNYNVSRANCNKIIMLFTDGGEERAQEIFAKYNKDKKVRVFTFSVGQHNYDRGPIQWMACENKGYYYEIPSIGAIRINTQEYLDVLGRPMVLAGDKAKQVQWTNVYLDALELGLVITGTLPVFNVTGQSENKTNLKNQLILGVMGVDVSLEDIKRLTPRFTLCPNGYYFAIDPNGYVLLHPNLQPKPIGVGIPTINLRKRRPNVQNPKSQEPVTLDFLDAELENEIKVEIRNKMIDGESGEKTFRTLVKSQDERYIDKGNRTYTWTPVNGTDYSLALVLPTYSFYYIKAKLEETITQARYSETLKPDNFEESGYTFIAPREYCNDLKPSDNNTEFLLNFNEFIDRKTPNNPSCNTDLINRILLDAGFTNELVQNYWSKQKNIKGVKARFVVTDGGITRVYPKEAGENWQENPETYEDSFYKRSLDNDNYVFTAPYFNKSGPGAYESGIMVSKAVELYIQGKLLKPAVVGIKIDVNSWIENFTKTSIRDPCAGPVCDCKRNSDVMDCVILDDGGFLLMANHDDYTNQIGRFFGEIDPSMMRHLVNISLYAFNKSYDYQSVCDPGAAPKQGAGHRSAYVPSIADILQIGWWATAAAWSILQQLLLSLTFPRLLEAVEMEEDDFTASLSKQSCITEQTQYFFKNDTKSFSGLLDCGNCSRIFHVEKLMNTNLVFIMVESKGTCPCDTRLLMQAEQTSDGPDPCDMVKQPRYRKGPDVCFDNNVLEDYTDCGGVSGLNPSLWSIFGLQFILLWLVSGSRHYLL
T1 sequence (O70578 whole entry partner): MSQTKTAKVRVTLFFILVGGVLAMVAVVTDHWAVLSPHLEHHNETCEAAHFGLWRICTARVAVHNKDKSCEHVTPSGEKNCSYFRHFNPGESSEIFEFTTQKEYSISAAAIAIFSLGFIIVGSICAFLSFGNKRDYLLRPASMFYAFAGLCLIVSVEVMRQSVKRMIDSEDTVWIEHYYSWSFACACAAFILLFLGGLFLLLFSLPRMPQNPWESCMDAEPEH

COC(=O)C1=C(C)NC(C)=C([N+](=O)[O-])[C@H]1c1ccccc1C(F)(F)F [(S)-(−)-BayK-8644]
ATP outflow after electrical stimulation of the muscle fiber (earlier work) (fdb muscle fibers [1]): also inhibits ATP release | effect on Ca^2+ current through the DHPR channel (earlier work) [2]: increases Ca^2+ current

Nc1ncnc2c1ncn2[C@@H]1O[C@H](COP(=O)(O)OP(=O)(O)OP(=O)(O)O)[C@@H](O)[C@H]1O [ATP]
mRNA levels of proinflammatory genes (TNF-α and IL-6) [3]: increase

COC(=O)C1=C(C)NC2=C(C(=O)OC2)C1c1ccccc1[N+](=O)[O-] (stereo not drawn) [MP-2, methyl 2-methyl-4-(2-nitrophenyl)-5-oxo-1,4,5,7-tetrahydrofuro [3,4-b]pyridine-3-carboxylate]
increase in Endurance test (incremental treadmill test) over the control (aged mice [4]; [8]): ~5 times | improvement in treadmill test (measure of resistance) (aged mice [4]; daily i.p. 1 mg/Kg for 12 days): 25% | inhibition at 10 µM [5]: 50 ± 8% | inhibition of ATP outflow induced by 20 Hz electrical stimulation (fdb muscle fibers [6]): inhibits the outflow of ATP; also recorded: indistinguishable from that of nifedipine | inhibition of ATP outflow induced by 20 Hz electrical stimulation (fdb muscle fibers [6]; listed as MP2): inhibits in a similar way as nifedipine | improvement of strength parameters with respect to the control (aged mice [7]; [8]): more than 4 times | muscle strength in aged mice (aged mice [7]; aged mice (age>18 months)): substantially improves their muscle strength | improvement in weight test (measure of strength) (aged mice [7]; daily i.p. 1 mg/Kg for 12 days): 64.4%

COC(=O)C1=C(C)NC(C)=C(C(=O)OCCN(C)Cc2ccccc2)C1c1cccc([N+](=O)[O-])c1 (stereo not drawn) [Nicardipine]
inhibition at 10 µM [5]: 32.6 ± 8%

COCCOC(=O)C1=C(C)NC(C)=C(C(=O)OC(C)C)C1c1cccc([N+](=O)[O-])c1 (stereo not drawn) [Nimodipine]
inhibition at 10 µM [5]: 48 ± 10%

COC(=O)C1=C(C)NC(C)=C(C(=O)OCC(C)C)C1c1ccccc1[N+](=O)[O-] (stereo not drawn) [Nisoldipine]
inhibition at 10 µM [5]: 14.3 ± 7%

CCOC(=O)C1=C(C)NC(C)=C(C(=O)OC)C1c1cccc([N+](=O)[O-])c1 (stereo not drawn) [Nitrendipine]
inhibition at 10 µM [5]: 47.6 ± 2%
